Source: ChEMBL document CHEMBL1124435, “Evaluation of glycolamide esters and various other esters of aspirin as true aspirin prodrugs” (J Med Chem, 1989)
Values after ≈ are worked out from the molar mass of the structure shown.

Key:
[1] = Observed pseudo-first order rate constant
[2] = Observed second order rate constant
[3] = species on record: Homo sapiens; assay: Percentage of aspirin formed during hydrolysis in 10% human plasma at pH 7.4 at 37 degrees celsius
[4] = physchem
[5] = in vitro; conditions: human, 10% human plasma
[6] = (§1) Observed first order rate constant
[7] = species on record: Homo sapiens; assay: Percentage of aspirin formed during hydrolysis in undiluted human plasma at pH 7.4 at 37 degrees celsius
[8] = Partition coefficient (logP); conditions: octanol/water
[9] = in vitro; conditions: human, 10% human plasma, pH 7.4
Description: Michaelis-Menten constant(Km) for hydrolysis in 10% human plasma(pH 7.4) at 37 degrees celsius

[10] = as §1; assay type: ADME

| K obs [1] | K2 [2] | Aspirin formed [3] | solubility [4] | half-life [5] | K1 [6] | Aspirin formed [7] | logP [8] | Km [9] | 10E2 K1 [10] | SMILES |
| --- | --- | --- | --- | --- | --- | --- | --- | --- | --- | --- |
| 0.723 min⁻¹ | 0.723 min⁻¹ | 0% | 350 µg/mL (≈ 1.25 mM) | 1 min | – | – | – | – | – | CCCC(=O)OCOC(=O)c1ccccc1OC(C)=O |
| 0.0462 min⁻¹ | 0.037 min⁻¹ | 20% | – | 15 min | 0.0092 min⁻¹ | 21% | 2.03 | – | – | CC(=O)Oc1ccccc1C(=O)OCC(=O)N(C(C)C)C(C)C |
| 0.0335 min⁻¹ | 0.0335 min⁻¹ | 0% | – | 20.7 min | – | – | – | – | – | CC(=O)Oc1ccccc1C(=O)OCC(=O)N(C1CCCCC1)C1CCCCC1 |
| 0.136 min⁻¹ | 0.136 min⁻¹ | 0% | – | 5.1 min | – | – | -0.43 | – | – | CC(=O)Oc1ccccc1C(=O)OCC(=O)NCC(N)=O |
| 0.212 min⁻¹ | 0.212 min⁻¹ | 0% | 4320 µg/mL (≈ 13.4 mM) | 3.3 min | – | – | 0.99 | – | – | CCOC(=O)CNC(=O)COC(=O)c1ccccc1OC(C)=O |
| 0.214 min⁻¹ | 0.214 min⁻¹ | 0% | 2810 µg/mL (≈ 14.5 mM) | 3.2 min | – | – | 1.46 | – | – | COC(=O)c1ccccc1OC(C)=O |
| 0.34 min⁻¹ | 0.34 min⁻¹ | 0% | 960 µg/mL (≈ 2.85 mM) | 2 min | – | – | 1.67 | – | – | CCOC(=O)CN(C)C(=O)COC(=O)c1ccccc1OC(C)=O |
| 0.53 min⁻¹ | 0.53 min⁻¹ | 0% | 20 µg/mL (≈ 0.078 mM) | 1.3 min | – | – | 2.88 | – | – | CC(=O)Oc1ccccc1C(=O)Oc1ccccc1 |
| 0.209 min⁻¹ | 0.105 min⁻¹ | 50% | – | 3.3 min | 0.105 min⁻¹ | 49% | 0.38 | 196 µM | – | CC(=O)Oc1ccccc1C(=O)OCC(=O)N(C)C |
| 0.315 min⁻¹ | 0.315 min⁻¹ | 0% | – | 2.2 min | – | – | 1.67 | – | – | CCOC(=O)COC(=O)c1ccccc1OC(C)=O |
| 0.0924 min⁻¹ | 0.0582 min⁻¹ | 37% | – | 7.5 min | – | – | -0.46 | 380 µM | 3.42 min⁻¹ | CC(=O)Oc1ccccc1C(=O)OCC(=O)N(C)CC(N)=O |
| 0.26 min⁻¹ | 0.26 min⁻¹ | 0% | 5520 µg/mL (≈ 20.8 mM) | 2.7 min | – | – | 0.9 | – | – | CCNC(=O)COC(=O)c1ccccc1OC(C)=O |
| 0.205 min⁻¹ | 0.205 min⁻¹ | 0% | – | 3.4 min | – | – | – | – | – | CC(=O)Oc1ccccc1C(=O)OCCN(C)C(C)=O |
| 0.395 min⁻¹ | 0.28 min⁻¹ | 29% | 2430 µg/mL (≈ 9.63 mM) | 1.8 min | 0.115 min⁻¹ | 28% | 1.42 | – | – | CC(=O)OCOC(=O)c1ccccc1OC(C)=O |
| 0.207 min⁻¹ | 0.145 min⁻¹ | 30% | 4230 µg/mL (≈ 16.5 mM) | 3.3 min | 0.0621 min⁻¹ | 31% | 0.11 | – | – | CC(=O)Oc1ccccc1C(=O)OC[S+](C)[O-] (configuration not stated) |
| 0.184 min⁻¹ | 0.114 min⁻¹ | 38% | – | 3.8 min | 0.0699 min⁻¹ | 40% | 0.06 | – | – | CC(=O)Oc1ccccc1C(=O)OCC(=O)N(C)CCO |
| 0.465 min⁻¹ | 0.465 min⁻¹ | 0% | 550 µg/mL (≈ 2.29 mM) | 1.5 min | – | – | 1.94 | – | – | CSCOC(=O)c1ccccc1OC(C)=O |
| 2.65 min⁻¹ | 2.49 min⁻¹ | 6% | > 200000 µg/mL | 0.26 min | 0.159 min⁻¹ | 8% | – | 49 µM | – | CC(=O)Oc1ccccc1C(=O)OCCN(C)C.Cl |
| 0.487 min⁻¹ | 0.487 min⁻¹ | 0% | 20 µg/mL (≈ 0.0638 mM) | 1.4 min | – | – | 2.15 | – | – | CC(=O)Nc1ccc(OC(=O)c2ccccc2OC(C)=O)cc1 [BENORILATE] |
| 0.0094 min⁻¹ | 0.0094 min⁻¹ | 0% | – | 73.7 min | – | – | – | – | – | CC(=O)Oc1ccccc1C(=O)Oc1ccccc1C(=O)O [DIPLOSALSALATE] |
